Experimental data: the supplement of paper PMC10307832

Compound: CN(C/C=C/C1=CC=C(C=C1)Cl)CC2=CC=CC=C2N(CCO)S(=O)(=O)C3=CC=C(C=C3)OC [KN-93] + CC(=O)c1c(C)c2cnc(Nc3ccc(N4CCNCC4)cn3)nc2n(C2CCCC2)c1=O [Palbociclib] (partner 0.5 µM)
Assay: relative viability (nuclei count vs DMSO), 5 days (fraction); higher = more cells survive
Procedure, shortened: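 One day after seeding in 1536-well plates, lung cancer cell lines were dosed by pin tool. Dosing was either single-drug or a fixed anchor-drug dose plus five library-drug doses (not always all listed) in √10 steps. After 5 days, nuclei were stained in one fix-and-stain step and counted on 4× images, and relative viability is the nuclei count of treated wells over that of vehicle wells, given as the median of duplicate plates.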

| Cell Line | relative viability (first compound 0.08 µM) | relative viability (first compound 0.253 µM) | relative viability (first compound 2.53 µM) | relative viability (first compound 8 µM) |
| --- | --- | --- | --- | --- |
| HCC-78 | 0.47 | 0.513 | 0.446 | 0.427 |
| HCC-827 | 0.591 | 0.492 | 0.845 | 0.422 |
| NCI-H2087 | 0.228 | 0.218 | 0.208 | 0.175 |
| NCI-H3122 | 0.127 | 0.181 | 0.229 | 0.184 |
| SK-LU-1 | 0.439 | 0.451 | 0.41 | 0.314 |
| NCI-H2170 | 0.35 | 0.48 | 0.403 | 0.338 |
| NCI-H1755 | 0.478 | 0.462 | 0.45 | 0.455 |
| NCI-H2126 | 0.341 | 0.333 | 0.362 | 0.354 |
| NCI-H1666 | 0.639 | 0.656 | 0.669 | 0.622 |
| NCI-H1395 | 0.602 | 0.69 | 0.598 | 0.478 |
| NCI-H23 | 0.516 | 0.493 | 0.618 | 0.418 |
| SW 1573 | 0.395 | 0.47 | 0.429 | 0.15 |
| NCI-H1944 | 0.368 | 0.328 | 0.327 | 0.243 |
| LCLC-97TM1 | 0.293 | 0.227 | 0.207 | 0.158 |
| HOP-62 | 0.461 | 0.573 | 0.552 | 0.477 |
| NCI-H522 | 1.1 | 1.31 | 1 | 0.81 |
| LXF-289 | 0.512 | 0.672 | 0.628 | 0.552 |
| NCI-H1915 | 0.536 | 0.537 | 0.513 | 0.438 |

| Cell Line | relative viability (first compound 0.08 µM) | relative viability (first compound 0.253 µM) | relative viability (first compound 2.53 µM) | relative viability (first compound 8 µM) |
| --- | --- | --- | --- | --- |
| NCI-H727 | 0.606 | – | 0.67 | 0.655 |
| UMC-11 | 0.35 | 0.306 | 0.35 | 0.322 |
| NCI-H838 | 0.222 | 0.182 | 0.216 | 0.212 |
| NCI-H1437 | 0.325 | 0.285 | 0.271 | 0.294 |
| NCI-H1975 | 0.475 | 0.477 | 0.742 | 0.193 |
| NCI-H441 | – | 0.171 | 0.185 | 0.147 |
| PC-14 | 0.483 | 0.607 | 0.751 | 0.35 |
| NCI-H520 | 0.219 | 0.218 | 0.251 | 0.201 |
| HCC-44 | 1.04 | 0.878 | 0.979 | 0.79 |
| NCI-H2347 | 0.378 | 0.44 | 0.434 | 0.407 |
| NCI-H2228 | 0.723 | 0.97 | 1.09 | 0.165 |
| SW 900 | 0.539 | 0.592 | 0.509 | 0.471 |
| CAL-12T | 0.37 | 0.52 | 0.232 | 0.3 |
| PC-3 [JPC-3] | 0.49 | 0.476 | 0.591 | 0.569 |
| LOU-NH91 | 0.542 | 0.562 | 0.56 | 0.512 |
| BEN | 0.482 | 0.448 | 0.523 | 0.465 |
| NCI-H2405 | 0.561 | 0.594 | 0.547 | 0.471 |
| NCI-H2009 | 0.244 | 0.204 | 0.217 | 0.196 |
